From patent US9371331B2, “Modulators of methyl modifying enzymes, compositions and uses thereof” (Constellation Pharmaceuticals, Inc., priority 2012, dated 2016)
Read-outs that look alike come from different tables or passages of the source.

Assays:
[1] = test system: H3K27me3 mark in HeLa cells; assay: H3K27me3 Alpha Hela Assay (AlphaLISA); type: cell-based; settings: 72 hrs; for EC50: Homo sapiens, read-out: H3K27me3_Alpha_HeLa_ (EC50)
Description: H3K27me3 Alpha Hela Assay (AlphaLISA).
Ten different doses of each test compound (in a series of 3-fold dilutions) were plated in duplicate 384-well tissue culture treated plates (Catalog #781080; Greiner Bio One; Monroe, N.C.). Hela cells grown in culture were trypsinized and counted using a Countess® cell counter (Catalog #C10281; Life Technologies, Grand Island, N.Y.). Cell were diluted to 67,000 cells per mL in 10% DMEM (Catalog #10569-010 Life Technologies. Grand Island, N.Y.) and 15 μL (1,000 cells) were plated into each well using the Biotek MicroFlo™ Select Dispenser (BioTek Instruments. Inc. Vermont, USA),) of the 384-well plate. Plates were incubated at 37° C./5% CO2 for 72 hrs. One of the duplicate plates was processed for HeLa assay and the other for viability.
To the plate processed for AlphaLISA was added 5 μL per well Cell-Histone Lysis buffer (1×) (Catalog #AL009F1 Perkin Elmer; Waltham, Mass.) and the plate was incubated at RT for 30 minutes on a plate shaker with low speed (Model#4625-Q Thermo Scientific; Waltham, Mass.). Then, 10 µL per well Histone Extraction buffer (catalog #AL009F2: Perkin Elmer; Waltham, Mass.) was added and the plate further incubated at RT for 20 min on plate shaker with low speed. To each well was then added 10 μL per well of a 5× mix of anti-K27me3 acceptor beads plus Biotinylated anti-Histone H3 (C-ter) Antibody (diluted to 3 nM final) (Catalog #AL118 Perkin Elmer; Waltham, Mass.). Dilution of the acceptor beads and then anti-Histone H3 was with 1× Histone Detection buffer (Catalog #AL009F3 Perkin Elmer; Waltham, Mass.) which was produced diluted from the 10× stock provided. The plate was sealed with an aluminum plate sealer and incubated at 23° C. for 60 min. We then added 10 μL 5× solution of Streptavidin Donor beads (Catalog #6760002 Perkin Elmer; Waltham, Mass.) (20 μg/mL final in 1× Histone Detection Buffer), sealed the plate with Aluminum plate sealer and incubated at 23° C. for 30 min. The plates were then read using an EnVision-Alpha Reader (model #2104 Perkin Elmer: Waltham, Mass.).
Data from both assays was analyzed using Assay Assistant (Constellation Pharmaceuticals In-house product) and Activity Base (IDBS Ltd. Surrey, UK) template. Data files were imported to Assay Assistant and assay conditions were specified. A unique Analysis ID was created and the data files exported to Activity Base. An analysis template was created on Activity Base to measure dose-dependent inhibition of H3K27me3 mark and cell viability respectively. Readout of DMSO wells were used to normalize the data. Resulting curves were fitted using Activity base software Model 205 (IDBS Ltd, Surrey, UK). The data was checked for quality, validated and integrated in excel format using SARview (IDBS Ltd, Surrey, UK).

EZH2 (rPRC2) = EZH2 (rPRC2) (Homo sapiens, UniProt Q15910); assay: EZH2 assay: rPRC2, biotinylated oligonucleosomes, 3H SAM methyl transfer (FlashPlate scintillation); type: biochemical; settings: biotinylated oligonucleosome substrate
Chain of EZH2 (rPRC2) (Q15910 whole entry): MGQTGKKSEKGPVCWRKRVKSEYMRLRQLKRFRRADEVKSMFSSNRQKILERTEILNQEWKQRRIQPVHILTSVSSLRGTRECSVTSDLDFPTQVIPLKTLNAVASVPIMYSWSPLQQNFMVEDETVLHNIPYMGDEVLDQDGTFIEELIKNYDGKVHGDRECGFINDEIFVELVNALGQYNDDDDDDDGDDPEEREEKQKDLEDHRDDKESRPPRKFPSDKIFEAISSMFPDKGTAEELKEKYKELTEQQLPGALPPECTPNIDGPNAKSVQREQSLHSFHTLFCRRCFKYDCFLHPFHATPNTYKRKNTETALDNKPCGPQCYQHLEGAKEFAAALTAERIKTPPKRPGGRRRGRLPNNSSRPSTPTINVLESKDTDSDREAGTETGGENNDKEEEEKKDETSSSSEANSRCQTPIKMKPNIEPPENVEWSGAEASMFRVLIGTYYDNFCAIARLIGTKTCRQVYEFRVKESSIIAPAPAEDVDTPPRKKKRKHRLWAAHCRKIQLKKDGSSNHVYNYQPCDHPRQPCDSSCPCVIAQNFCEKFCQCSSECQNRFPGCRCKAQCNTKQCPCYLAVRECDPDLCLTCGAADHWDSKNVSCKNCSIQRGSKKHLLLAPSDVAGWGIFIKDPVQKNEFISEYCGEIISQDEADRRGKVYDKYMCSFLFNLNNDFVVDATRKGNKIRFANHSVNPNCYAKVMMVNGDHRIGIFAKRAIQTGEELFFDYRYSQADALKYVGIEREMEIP
Chain of EZH2 (rPRC2) (O75530 whole entry partner): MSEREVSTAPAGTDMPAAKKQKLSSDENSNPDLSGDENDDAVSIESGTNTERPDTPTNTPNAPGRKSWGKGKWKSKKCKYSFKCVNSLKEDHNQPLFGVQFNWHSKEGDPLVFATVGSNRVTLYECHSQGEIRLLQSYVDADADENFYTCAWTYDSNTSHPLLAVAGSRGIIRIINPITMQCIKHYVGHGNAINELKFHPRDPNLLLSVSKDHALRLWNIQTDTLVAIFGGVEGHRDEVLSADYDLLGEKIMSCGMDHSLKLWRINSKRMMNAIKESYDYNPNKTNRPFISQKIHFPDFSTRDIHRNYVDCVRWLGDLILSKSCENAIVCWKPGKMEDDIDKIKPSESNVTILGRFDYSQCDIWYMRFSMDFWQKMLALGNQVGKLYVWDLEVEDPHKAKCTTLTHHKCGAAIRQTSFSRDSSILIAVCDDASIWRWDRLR
Chain of EZH2 (rPRC2) (Q15022 whole entry partner): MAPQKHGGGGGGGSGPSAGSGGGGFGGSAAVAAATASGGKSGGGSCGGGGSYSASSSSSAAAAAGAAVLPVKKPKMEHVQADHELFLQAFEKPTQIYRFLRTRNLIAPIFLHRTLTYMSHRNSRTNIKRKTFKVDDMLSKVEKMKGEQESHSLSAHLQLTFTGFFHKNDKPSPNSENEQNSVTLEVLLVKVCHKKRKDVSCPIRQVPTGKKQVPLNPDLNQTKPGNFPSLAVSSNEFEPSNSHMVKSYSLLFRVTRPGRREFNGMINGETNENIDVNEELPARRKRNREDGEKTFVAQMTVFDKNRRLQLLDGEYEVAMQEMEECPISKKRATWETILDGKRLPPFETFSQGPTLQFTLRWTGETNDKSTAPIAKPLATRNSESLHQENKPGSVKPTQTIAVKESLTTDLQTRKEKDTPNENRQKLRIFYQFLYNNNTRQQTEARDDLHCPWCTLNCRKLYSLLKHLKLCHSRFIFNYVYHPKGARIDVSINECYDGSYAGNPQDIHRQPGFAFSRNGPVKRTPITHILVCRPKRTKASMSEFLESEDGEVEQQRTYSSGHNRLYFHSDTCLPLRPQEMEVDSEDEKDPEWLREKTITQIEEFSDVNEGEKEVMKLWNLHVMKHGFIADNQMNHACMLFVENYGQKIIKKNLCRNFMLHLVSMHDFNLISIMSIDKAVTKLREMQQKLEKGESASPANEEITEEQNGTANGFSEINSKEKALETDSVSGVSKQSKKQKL

Y641N EZH2 = Y641N EZH2 (Homo sapiens, UniProt Q15910, Y641N); assay: Y641N EZH2 assay: as EZH2 assay, with reconstituted H3K27Me2 oligonucleosomes as substrate; type: biochemical
Chain of Y641N EZH2 (Q15910 whole entry Y641N): as the sequence (Q15910 whole entry) above, with Y641N counted along it
Chain of Y641N EZH2 (O75530 whole entry partner): as the sequence (O75530 whole entry partner) above
Chain of Y641N EZH2 (Q15022 whole entry partner): as the sequence (Q15022 whole entry partner) above

[2] = EZH2 IC50, wild-type EZH2 (rPRC2)
[3] = Y641N EZH2 IC50, Y641N mutant EZH2, H3K27Me2 oligonucleosome substrate

`COc1cc(C)[nH]c(=O)c1CNC(=O)c1c(C)n(-c2cccc3c2CCCN3S(C)(=O)=O)c2ccccc12` [Compound 371, N-((4-methoxy-6-methyl-2-oxo-1,2-dihydropyridin-3-yl)methyl)-2-methyl-1-(1-(methylsulfonyl)-1,2,3,4-tetrahydroquinolin-5-yl)-1H-indole-3-carboxamide] was tested, and the “H3K27me3_Alpha_HeLa_ (EC50)” value [1] was “*(3.33 μM)”, the IC50 (EZH2 (rPRC2); wild-type EZH2 (rPRC2), read-out: EZH2 IC50) was less than 100 nM and the IC50 (Y641N EZH2; Y641N mutant EZH2, H3K27Me2 oligonucleosome substrate, read-out: Y641N EZH2 IC50) was less than 100 nM.
`COc1cc(C)[nH]c(=O)c1CNC(=O)c1c(C)n(C(C)C2CCN(C(C)C)CC2)c2ccccc12` (single isomer, unassigned) [Compound 358, (R or S)-1-(1-(1-isopropylpiperidin-4-yl)ethyl)-N-((4-methoxy-6-methyl-2-oxo-1,2-dihydropyridin-3-yl)methyl)-2-methyl-1H-indole-3-carboxamide] showed an EC50 [1] of 400 to 2000 nM, an IC50 (EZH2 (rPRC2); [2]) of less than 100 nM and an IC50 (Y641N EZH2; [3]) of less than 100 nM.
Work on `COc1cc(C)[nH]c(=O)c1CNC(=O)c1c(C)n(C(C)C2CCN(CCO)CC2)c2ccccc12` (single isomer, unassigned) [Compound 347, (R or S)-1-(1-(1-(2-hydroxyethyl)piperidin-4-yl)ethyl)-N-((4-methoxy-6-methyl-2-oxo-1,2-dihydropyridin-3-yl)methyl)-2-methyl-1H-indole-3-carboxamide] yielded an EC50 [1] of 400 to 2000 nM, an IC50 (EZH2 (rPRC2); [2]) of less than 100 nM and an IC50 (Y641N EZH2; [3]) of less than 100 nM.
`COc1cc(C)[nH]c(=O)c1CNC(=O)c1c(C)n(C(C)C2CCN(C)CC2)c2ccccc12` (single isomer, unassigned) [Compound 343, (R or S)-N-((4-methoxy-6-methyl-2-oxo-1,2-dihydropyridin-3-yl)methyl)-2-methyl-1-(1-(1-methylpiperidin-4-yl)ethyl)-1H-indole-3-carboxamide] was tested, and the EC50 [1] was 400 to 2000 nM, the IC50 (EZH2 (rPRC2); [2]) was less than 100 nM and the IC50 (Y641N EZH2; [3]) was less than 100 nM.
`COc1cc(C)[nH]c(=O)c1CNC(=O)c1c(C)n(C(C)C2CCN(CCF)CC2)c2ccccc12` (single isomer, unassigned) [Compound 356, (R or S)-1-(1-(1-(2-fluoroethyl)piperidin-4-yl)ethyl)-N-((4-methoxy-6-methyl-2-oxo-1,2-dihydropyridin-3-yl)methyl-2-methyl-1H-indole-3-carboxamide] was tested, and the EC50 [1] was less than 400 nM, the IC50 (EZH2 (rPRC2); [2]) was less than 100 nM and the IC50 (Y641N EZH2; [3]) was less than 100 nM.
With `COc1cc(C)[nH]c(=O)c1CNC(=O)c1c(C)n(C(C)C2CCN(C(=O)C(C)(C)O)CC2)c2ccccc12` (single isomer, unassigned) [Compound 337, (R or S)-1-(1-(1-(2-hydroxy-2-methylpropanoyl)piperidin-4-yl)ethyl)-N-((4-methoxy-6-methyl-2-oxo-1,2-dihydropyridin-3-yl)methyl)-2-methyl-IH-indole-3-carboxamide] the EC50 [1] was less than 400 nM.
For `COc1cc(C)[nH]c(=O)c1CNC(=O)c1c(C)n(C(C)C2CCN(C(=O)OCC(C)C)CC2)c2ccccc12` (single isomer, unassigned) [Compound 357, (R or S)-isobutyl 4-(1-(3-(((4-methoxy-6-methyl-2-oxo-1,2-dihydropyridin-3-yl)methyl)carbamoyl)-2-methyl-1 H-indol-1-yl)ethyl)piperidine-1-carboxylate], the EC50 [1] was less than 400 nM, the IC50 (EZH2 (rPRC2); [2]) was less than 100 nM and the IC50 (Y641N EZH2; [3]) was less than 100 nM.
`COc1cc(C)[nH]c(=O)c1CNC(=O)c1c(C)n(C(C)C2CCOCC2)c2cc(-c3ccccc3)ccc12` (single isomer, unassigned) [Compound 374, (R or S)—N-((4-methoxy-6-methyl-2-oxo-1,2-dihydropyridin-3-yl)methyl)-2-methyl-6-phenyl-1-(1-(tetrahydro-2H-pyran-4-yl)ethyl)-1H-indole-3-carboxamide] showed an EC50 [1] of less than 400 nM, an IC50 (EZH2 (rPRC2); [2]) of less than 100 nM and an IC50 (Y641N EZH2; [3]) of less than 100 nM.
Compound `COc1cc(C)[nH]c(=O)c1CNC(=O)c1c(C)n(C(C)C2CCN(S(C)(=O)=O)CC2)c2ccccc12` (single isomer, unassigned) [Compound 336, (R or S)-N-((4-methoxy-6-methyl-2-oxo-1,2-dihydropyridin-3-methyl)-2 methyl-1-(1-(1-(methylsulfonyl)piperidin-4-yl)ethyl)-1 H-indole-3-carboxamide] has an EC50 [1] of less than 400 nM.
For `COc1cc(C)[nH]c(=O)c1CNC(=O)c1c(C)n(C(C)C2CCN(C(=O)C(C)C)CC2)c2ccccc12` (single isomer, unassigned) [Compound 342, (R or S)-1-(1-(1-isobulyrylpiperidin-4-yl)ethyl)-N-((4-methoxy-6-methyl-2-oxo-1,2-dihydropyridin-3-yl)methyl)-2-methyl-1H-indole-3-carboxamide], the EC50 [1] was less than 400 nM.
`Cc1cc(OC(F)F)c(CNC(=O)c2c(C)n(C(C)C3CCN(S(C)(=O)=O)CC3)c3ccccc23)c(=O)[nH]1` (single isomer, unassigned) [Compound 344, (R or S)-N((4-(difluoromethoxy)-6-methyl-2-oxo-1,2-dihydropyridin-3-yl)methyl)-2-methy1-1-(1-(1-(methylsulfonyl)piperidin-4-yl)ethyl)-1H-indole-3-carboxamide] gave an EC50 [1] of less than 400 nM.
`COc1cc(C)[nH]c(=O)c1CNC(=O)c1c(C)n(C(C)C2CCN(CC(F)(F)F)CC2)c2ccccc12` (single isomer, unassigned) [Compound 365, (R or S)-N-((4-methoxy-6-methyl-2-oxo-1,2-dihydropyridin-3-yl)methyl)-2-methyl-1-(1-(1-(2,2,2-trifluoroethyl)piperidin-4-yl)ethyl)-1H-indole-3-carboxamide] gave an EC50 [1] of less than 400 nM.
In the case of `CCc1cc(C)[nH]c(=O)c1CNC(=O)c1c(C)n(C(C)C2CCN(C)CC2)c2ccccc12` (single isomer, unassigned) [Compound 366, (R or S)-N-((4-ethyl-6-methyl-2-oxo-1,2-dihydropyridin-3-yl)methyl)-2-methyl-1-(1-(1-methylpiperidin-4-yl)ethyl-1 H-indole-3-carboxamide], the EC50 [1] is reported as 400 to 2000 nM.
`CCS(=O)(=O)N1CCC(C(C)n2c(C)c(C(=O)NCc3c(C)cc(C)[nH]c3=O)c3ccccc32)CC1` (single isomer, unassigned) [Compound 368, (R or S)-N-(4,6-dimethyl-2-oxo-1,2-dihydropyridin-3-yl)methyl)-1-(1-(1-(ethylsulfonyl)piperidin-4-yl)ethyl)-2-methyl-1 H-indole-3-carboxamide] showed an EC50 [1] of less than 400 nM.
With `Cc1cc(C)c(CNC(=O)c2c(C)n(C(C)C3CCN(C)CC3)c3ccccc23)c(=O)[nH]1` (single isomer, unassigned) [Compound 367, (R or S)-N-((4,6-dimethyl-2-oxo-1,2-dihydropyridin-3-yl)methyl)-2-methyl-1-(1-(1-methylpiperidin-4-yl)ethyl)-1 H-indole-3-carboxamide] the EC50 [1] was less than 400 nM.
For `COCCN1CCC(C(C)n2c(C)c(C(=O)NCc3c(OC)cc(C)[nH]c3=O)c3ccccc32)CC1` (single isomer, unassigned) [Compound 359, (R or S)-N-((4-methoxy-6-methyl-2-oxo-1,2-dihysropyridin-3-yl)methyl)-1-(1-(1-(2-methoxyethyl)piperidin-4-yl)ethyl)-2-methyl-1 H-indole-3-carboxamide], the EC50 [1] was 400 to 2000 nM.
`COc1cc(C)[nH]c(=O)c1CNC(=O)c1c(C)n(C(C)C2CCN(C3COC3)CC2)c2ccccc12` (single isomer, unassigned) [Compound 341, (R or S)-N-((4-methoxy-6-methyl-2-oxo-1,2dihydropyridin-3-yl)methyl)-2-methyl-1-(1-(1-(oxctan-3-yl)piperidin-4-yl)ethyl)-1 H-indole-3-carboxamide] gave an EC50 [1] of less than 400 nM.
In the case of `Cc1cc(C)c(CNC(=O)c2c(C)n(C(C)C3CCN(C4COC4)CC3)c3ccccc23)c(=O)[nH]1` (single isomer, unassigned) [Compound 375, (R or S)-N-((4,6-dimethyl-2-oxo-1,2-dihydropyridin-3-yl)methyl)-2-methyl-1-(1-(1-(oxctan-3-yl)piperidin-4-yl)ethyl)-1 H-indole-3-carboxamide], the EC50 [1] is reported as less than 400 nM.
